Reference: PubChem BioAssay (NCI)
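Following 48 hours of exposure in 96-well plates, responses at five concentrations were used to interpolate endpoints linearly. GI50 marks 50% less growth. TGI marks complete inhibition of growth.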

Experiments:
Assay in all cases: NCI tumour cell line growth inhibition, 48 h
SW-620 colon = test system: SW-620 colon
HL-60(TB) leukemia = test system: HL-60(TB) leukemia
DLD-1 colon = test system: DLD-1 colon
NCI-H23 lung = test system: NCI-H23 lung
MOLT-4 leukemia = test system: MOLT-4 leukemia
DMS 114 small cell lung = test system: DMS 114 small cell lung
U251 CNS = test system: U251 CNS
MCF7 breast = test system: MCF7 breast
MDA-MB-435 = test system: MDA-MB-435
BT-549 breast = test system: BT-549 breast
HS 578T breast = test system: HS 578T breast

| Structure (SMILES) | TGI (SW-620 colon) | TGI (HL-60(TB) leukemia) | TGI (DLD-1 colon) | TGI (NCI-H23 lung) | TGI (MOLT-4 leukemia) | TGI (DMS 114 small cell lung) | TGI (U251 CNS) | TGI (MCF7 breast) | TGI (MDA-MB-435) | TGI (BT-549 breast) | TGI (HS 578T breast) | GI50 (SW-620 colon) |
| --- | --- | --- | --- | --- | --- | --- | --- | --- | --- | --- | --- | --- |
| C=C=CC(NC(=O)c1ccccc1)(C(=O)O)C(F)(F)F (configuration not stated) | > 100 µM | > 100 µM | > 100 µM | > 100 µM | > 100 µM | > 100 µM | > 100 µM |  |  |  |  |  |
| O=C(O)/C=C/c1c[nH]c(=O)[nH]c1=O | > 500 µM | > 500 µM | > 500 µM | > 500 µM | > 281 µM | > 500 µM | > 500 µM | > 500 µM |  |  |  |  |
| C/C(=N\O)c1cccc[n+]1Cc1ccccc1 | > 100 µM | > 100 µM |  | > 100 µM | > 100 µM |  | > 100 µM | > 100 µM | > 100 µM | > 100 µM | > 100 µM |  |
| O=C(NO)NCCCl | > 100 µM | > 100 µM |  | > 100 µM | > 100 µM |  | > 100 µM | > 100 µM | > 100 µM | > 100 µM | > 100 µM |  |
| C[C@]12CC(c3ccccc3O1)C(C(=O)Nc1nc(C34CC5CC(CC(C5)C3)C4)cs1)C(=O)N2 (some centres not stated) | > 100 µM | > 100 µM |  | > 100 µM | > 100 µM |  | > 100 µM | > 100 µM | > 100 µM | > 100 µM | > 100 µM |  |
| O=C(/C(=C\I)c1ccccc1)c1ccccc1 | 9.93 µM | 2.57 µM |  | 25.9 µM | 86.5 µM |  | 9.69 µM | 4.22 µM | 26.5 µM | 30.3 µM | 19.1 µM |  |
| CC12CCC(CC1)C(C)(C)O2 | 89.7 µM | > 93.9 µM | 103 µM | 121 µM | 77.2 µM | 123 µM | 112 µM | 27.9 µM |  |  |  | 9.09 µM |
| COc1ccccc1C(=O)NCC1CCCN2CCCCC12 (configuration not stated) | > 100 µM | > 100 µM |  | > 100 µM | > 100 µM |  | > 100 µM | > 100 µM | > 100 µM | > 100 µM | > 100 µM |  |
| CC(=O)OCC1OC(n2c(Br)nc3c2c(=O)n(C)c(=O)n3C)C(OC(C)=O)C1OC(C)=O (configuration not stated) | > 100 µM | 57.9 µM |  | > 100 µM | > 100 µM |  | > 100 µM | > 100 µM | > 100 µM | > 100 µM | > 100 µM |  |
| Clc1ccc(C[P+](c2ccccc2)(c2ccccc2)c2ccccc2)cc1Cl | 12.7 µM | 14.9 µM | 21.5 µM | 10.4 µM |  | 5.95 µM | 10.6 µM |  |  |  |  |  |
| Cc1cccc(CC(Cc2ccc(C)cc2C(=O)O)C(=O)O)c1 (configuration not stated) | > 100 µM | > 100 µM |  | > 100 µM | > 100 µM |  | > 100 µM | > 100 µM | > 100 µM | > 100 µM | > 100 µM |  |
| C=C1C(=O)OC2CC(C)C3C4OC4C(O)C3(C)C(O)C12 (configuration not stated) | 54.6 µM | > 51.6 µM | 87.8 µM | 55.5 µM | 41.8 µM | 45.9 µM | 96.6 µM | 66.7 µM |  |  |  |  |
| O=C(O)c1nc2ccc(C(F)(F)F)cc2nc1Nc1ccc(F)cc1 | 82.2 µM | 33.3 µM |  | 37.6 µM | 28.9 µM |  | > 100 µM | 61.5 µM | 44.7 µM | 44.2 µM | 96.4 µM |  |
| NCCN1C(=O)c2ccccc2C1c1ccc(Cl)cc1 (configuration not stated) | > 100 µM | > 100 µM |  | > 100 µM | > 100 µM |  | > 100 µM | > 100 µM | > 100 µM | > 100 µM | > 100 µM |  |
| O=c1c(Cc2ccc(Cl)cc2)nnc2sc(-c3ccc(-c4ccc(Cl)cc4Cl)o3)nn12 | > 100 µM | > 100 µM |  | > 100 µM | > 100 µM |  | > 100 µM | > 100 µM | > 100 µM | > 100 µM | > 100 µM |  |
| C/C(N=NS(=O)(=O)c1ccc([N+](=O)[O-])cc1)=C1\C=CC=CN1O | > 100 µM | > 100 µM | > 100 µM | > 100 µM | > 100 µM | > 100 µM | > 100 µM |  |  |  |  |  |
| COC(=O)C1(SC)C2CCC3C2CCC31 (configuration not stated) | > 100 µM | > 100 µM |  | > 100 µM | > 100 µM |  | > 100 µM | > 100 µM | > 100 µM | > 100 µM | > 100 µM |  |
| CC1(C)COC2=C(C1)C(=O)c1ccccc1C2=O | 4.03 µM | 2.71 µM |  | 3.46 µM | 3.91 µM |  | 2.78 µM | 2.99 µM | 0.338 µM | 3.66 µM | 7.95 µM |  |
| COC1(CC[C@@H](C)COC2OC(CO)C(O)C(O)C2O)O[C@H]2C[C@H]3[C@@H]4CC=C5C[C@@H](OC6OC(CO)C(O)C(OC7OC(CO)C(O)C(O)C7O)C6OC6OC(C)C(O)C(O)C6O)CC[C@]5(C)[C@H]4CC[C@]3(C)[C@H]2[C@@H]1C (some centres not stated) | 6.51 µM | 26.8 µM |  | 28.2 µM | > 31.6 µM |  | 4.13 µM | 37.6 µM | 8.52 µM | 31.8 µM | 22.2 µM |  |
